Test results as given in patent US20130310256A1, “HERBICIDAL COMPOSITIONS COMPRISING 4-AMINO-3-CHLORO-5-FLUORO-6-(4-CHLORO-2-FLUORO-3-METHOXYPHENYL) PYRIDINE-2-CARBOXYLIC ACID OR A DERIVATIVE THEREOF AND VLCFA AND LIPID SYNTHESIS INHIBITING HERBICIDES” (DOW AGROSCIENCES LLC, priority 2008, published 2013).
“And” between values parts separate entries of the source, which are not always exact repeats. Equal values may be shown once.

Tested on: ECHCG
Assay: Example I: postemergence foliar-applied weed control, greenhouse
Assay type: in vivo, Echinochloa crus-galli (L.) Beauv. (barnyardgrass)
Settings: for Visual Weed Control (%) - 22 DAA ECHCG Obs / Visual Weed Control (%) - 20 DAA ECHCG Obs: foliar
In short: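 Plants grown in loam/sandy loam–calcareous grit soil (80:20) in greenhouse, 14 hr photoperiod, about 29° C. day/26° C. night, treated postemergence at first to fourth true leaf stage. Foliar spray at 187 L/ha with 1.25% (v/v) crop oil concentrate; Compound A dosed on acid equivalent basis, partners on active ingredient basis.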

## COc1c(Cl)ccc(-c2nc(C(=O)OCc3ccccc3)c(Cl)c(N)c2F)c1F [Compound A Benzyl Ester, benzyl ester of 4-amino-3-chloro-5-fluoro-6-(4-chloro-2-fluoro-3-methoxy-phenyl)pyridine-2-carboxylic acid]
5.3 gae/ha
  Visual Weed Control (%) - 22 DAA ECHCG Obs: 40%
8 gae/ha
  Visual Weed Control (%) - 20 DAA ECHCG Obs: 63%
  Visual Weed Control (%) - 22 DAA ECHCG Obs: 25%
10.6 gae/ha
  Visual Weed Control (%) - 22 DAA ECHCG Obs: 60%
16 gae/ha
  Visual Weed Control (%) - 20 DAA ECHCG Obs: 78%
  Visual Weed Control (%) - 22 DAA ECHCG Obs: 50%
20 DAA, 4.38 gae/ha
  Visual Weed Control Obs: 70%
20 DAA, 8.75 gae/ha
  Visual Weed Control Obs: 70%
20 DAA, 16 gae/ha
  Visual Weed Control Obs: 78%
20 DAA, 32 gae/ha
  Visual Weed Control Obs: 83%
32 gae/ha
  Visual Weed Control (%) - 20 DAA ECHCG Obs: 83%
  Visual Weed Control (%) - 22 DAA ECHCG Obs: 85%

## COc1c(Cl)ccc(-c2nc(C(=O)O)c(Cl)c(N)c2F)c1F [Compound A Acid, 4-amino-3-chloro-6-(4-chloro-2-fluoro-3-methoxyphenyl)-5-fluoropyridine-2-carboxylic acid]
5.3 gae/ha
  Visual Weed Control (%) - 22 DAA ECHCG Obs: 65%
10.6 gae/ha
  Visual Weed Control (%) - 22 DAA ECHCG Obs: 55%
20 DAA, 4.38 gae/ha
  Visual Weed Control Obs: 60% and 50%
21 DAA, 17.5 gae/ha
  Visual Weed Control Obs: 88%
21 DAA, 35 gae/ha
  Visual Weed Control Obs: 85%

## CCS(=O)(=O)Oc1ccc2c(c1)C(C)(C)CO2 [Benfuresate, 2,3-dihydro-3,3-dimethyl-5-benzofuranyl ethanesulfonate]
75 gai/ha
  Visual Weed Control (%) - 22 DAA ECHCG Obs: 0%
150 gai/ha
  Visual Weed Control (%) - 22 DAA ECHCG Obs: 0%
300 gai/ha
  Visual Weed Control (%) - 22 DAA ECHCG Obs: 0%

## CCCOCCN(C(=O)CCl)c1c(CC)cccc1CC [Pretilachlor, 2-chloro-N-(2,6-diethylphenyl)-N-(2-propoxyethyl)acetamide]
20 DAA, 37.5 gai/ha
  Visual Weed Control Obs: 10%
20 DAA, 75 gai/ha
  Visual Weed Control Obs: 10%
20 DAA, 150 gai/ha
  Visual Weed Control Obs: 0%

## CCN(CC)C(=O)n1cnc(S(=O)(=O)c2c(C)cc(C)cc2C)n1 [Cafenstrole, N,N-diethyl-3-[(2,4,6-trimethylphenyl)sulfonyl]-1H-1,2,4-triazole-1-carboxamide]
20 DAA, 26.25 gai/ha Himeadow WP
  Visual Weed Control Obs: 10%
20 DAA, 52.5 gai/ha Himeadow WP
  Visual Weed Control Obs: 15%
20 DAA, 105 gai/ha Himeadow WP
  Visual Weed Control Obs: 15%
21 DAA, 210 gai/ha Lapost Flowable
  Visual Weed Control Obs: 0%
